Legend:
[1] = test system: ClpP substrate protein levels in mouse MEF cells; assay: Western blot analysis of ClpP substrates in MEF cells treated with ClpP inhibitors; type: cell-based; settings: 10 μM in OPTI-MEM twice a day for 2 days (48 hr); wild type mouse MEF cells; western blot (FIGS. 24 and 25)
Method: (§1) Western blot. Tissues or cells were lysated in low-detergent buffer (50 mM Tris/HCl, pH 8.0, 150 mM NaCl, 0.1% SDS, 0.5% Nonidet P-40, 0.5% sodium deoxycholate) with a mixture of protease inhibitors. Phosphatase inhibitors were also included in the lysate buffer. The lysates were centrifuged at 13,000 rpm for 10 min to remove the pellets. SDS-PAGE was performed with a NuPAGE bis-tris system from Invitrogen, following the vendor's protocol. A standard western blot protocol was used with IRDye-labeled secondary antibodies (Li-cor). A Li-cor image system was used to scan the western blot images.
(§2) Wild type mouse MEF cells were seeded at 200,000 cells per well at 6 well plates the day before treatment. Cells were treated with the small molecule ClpP inhibitors A2-32-01, AV167, and AV179 (described previously herein) at 10 μM in OPTI-MEM twice a day for 2 days (48 hr). For each treatment, the old medium will be removed and fresh medium added to the wells. After 48 hr treatment, the cells were harvested for western blot analysis or qPCR assay of ClpP substrates.

[2] = test system: mRNA level of these genes in mouse MEF cells; assay: qPCR assay of ClpP substrates in MEF cells treated with ClpP inhibitor; type: cell-based; settings: 10 μM twice a day for 2 days (48 hr), qPCR (FIG. 26)
Method: as §2

[3] = test system: high fat diet (HFD)-induced obesity and diabetes mouse models; assay: In vivo treatment in high fat diet (HFD)-induced obesity and diabetes mouse model
Description: Animals. All mice were maintained on a 12-h light/dark cycle in a pathogen-free animal facility. Mice were separately housed by their genotypes for all metabolic studies. For high-fat diet (HFD)-induced obesity studies, animals were fed a HFD (21% by weight, 42% kcal from fat, 0.2% total cholesterol; TD.01064, Harlan-Teklad) for specified periods. Anesthesia was induced with isoflurane (survival procedures) or with avertin (terminal procedures). All procedures were approved by the UCSF Animal Research Committee and followed NIH guidelines. Animal sample sizes for different assays were chosen based on previous literature. Animals were grouped according to genotype; no randomization was used. For all behavior tests, all animal IDs were blinded to tester. Testers were not blinded for other assays.
(§3) Measurement of blood glucose and plasma insulin. Blood glucose was measured with a glucometer and glucose test strips (Free Style Lite). Plasma insulin was quantified with an insulin Elisa kit (Crystal Chem).
(§4) Glucose, insulin, and pyruvate tolerance tests. Glucose, insulin, and pyruvate tolerance tests were performed by intraperitoneal injection of glucose (2 g/kg), insulin (0.5 units/kg) or pyruvate (2 g/kg) after an overnight fast for glucose and pyruvate or a 4-h fast for insulin. Blood glucose levels were measured before injection and at different time points after injection. To assess glucose-stimulated insulin release, mice fasted overnight (for 16 h) and were then injected intraperitoneally with glucose (2 g/kg). Blood samples were collected from tail veins before injection and at different time points after injection.
(§5) Histological analysis. Tissues (liver, visceral adipose, gastrocnemius muscle, interscapular brown adipose, and pancreas) were fixed in 4% paraformaldehyde (pH 7.4) overnight, embedded in paraffin, and serially sectioned at 7-8 μm. Standard haematoxylin and eosin staining was performed.
7-9 month old WT female (20 mice), were fed with high fat diet for 3 weeks. Body weight change and blood glucose/plasma insulin levels in response to HFD were measured. At the beginning of the 4th week, for treatment group, A2-32-01 was injected peritoneally twice daily at 300 mg/kg for 8 days. For the control group, corn oil (vehicle) was injected. The mice were maintained on HFD. The body weight change was followed every day. At the 8th day of A2-32-01 injection, blood glucose levels were measured, and a glucose tolerance test was applied to measure insulin sensitivity.
(§6) The in-vivo analysis described in Examples 9 and 10 was continued in accordance with the experimental protocol shown in FIG. 30.

[4] = target: T1, ClpP (Mus musculus, UniProt O88696); assay: ClpP activity in liver mitochondrion lysates from treated HFD-fed mice; type: in vivo; settings: HFD-fed WT mice; vs vehicle-treated (FIG. 32 left panel)
T1 construct: ClpP activity was lower in liver mitochondrion lysates from A2-32-01-treated mice compared to those from vehicle-treated mice; from tissue; host or cells: liver mitochondria of HFD-fed wild-type mice dosed in vivo with A2-32-01
Method: (§7) The in-vivo analysis of Example 9 is continued, with collection of the blood and multiple organs (liver/muscle/brain) at day 9 of A2-32-01 injection. Mitochondria are isolated from mouse liver and ClpP activity is tested using peptide substrates, e.g., as described herein. Western blot analysis is performed to detect ClpP substrate levels.
as §6

[5] = test system: tentative ClpP effectors (Trap1, ClpX, LRPPRC, LonP, and OAT); assay: Western blot of tentative ClpP effectors in liver mitochondrion lysates from treated HFD-fed mice; type: in vivo, mouse; settings: HFD-fed WT mice, vs vehicle-treated (FIG. 32 right panel)
Method: as §1, §7, §6

[6] = test system: db/db mice (a model of obesity, diabetes, and dyslipidemia); assay: In vivo treatment of db/db mice; parameters: species or system mouse
Method: as §3, §4, §5

[7] = target: T1, ClpP; assay: ClpP activity in liver mitochondria lysates from treated db/db mice; type: in vivo; settings: vs vehicle (FIG. 35 panel E)
[8] = WT mice on HFD, H&E and oil red staining, vs vehicle (FIG. 33)
[9] = H&E and oil red staining, vs vehicle (FIG. 36)

T1 sequence (O88696 53-272): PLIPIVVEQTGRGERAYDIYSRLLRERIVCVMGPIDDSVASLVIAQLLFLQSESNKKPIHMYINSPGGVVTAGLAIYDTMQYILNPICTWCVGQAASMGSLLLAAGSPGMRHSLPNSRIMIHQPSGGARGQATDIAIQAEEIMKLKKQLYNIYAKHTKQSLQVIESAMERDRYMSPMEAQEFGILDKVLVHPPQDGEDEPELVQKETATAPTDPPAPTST

In the case of `C=CCCCCCCC[C@H]1C(=O)O[C@@H]1CCc1cccnc1` (racemic) [A2-32-01, (3RS,4RS)-3-(non-8-en-1-yl)-4-(2-(pyridin-3-yl)ethyl)oxetan-2-one], the “ClpP substrate protein levels” value [1] is reported as “increased”, the “mRNA level of ClpP substrate genes” value [2] is reported as “remained unchanged” and the body weight ([3]; 300 mg/kg peritoneally twice daily, day 2 through day 7, HFD-fed WT female mice, vs vehicle control (FIG. 28)) is reported as “significant decrease”. For the same compound, the “insulin sensitivity (glucose tolerance test)” value ([3]; 300 mg/kg peritoneally twice daily, day 8, HFD-fed WT mice, vs vehicle control (FIG. 29)) was “significant improvement”, the “insulin sensitivity (glucose tolerance tests)” value ([3]; Example 11, HFD-fed WT mice, vs vehicle (FIG. 31 right panel)) was “increased” and the body weight ([3]; Example 11, mice on HFD, vs vehicle-treated (FIG. 31 left panel)) was “significantly decreased”. For the same compound, the “lipid accumulation in liver cells” value [3, 8] was “lowered”, the “morphology of liver cells” value [3, 8] was “restored normal morphology” and the “ClpP activity in liver mitochondrion lysates” value [4] was “lower”. For the same compound, the “levels of tentative ClpP effectors (Trap1, ClpX, LRPPRC, LonP, and OAT) in liver mitochondrion lysates” value [5] was “higher”, the “lipid accumulation in liver cells” value [6, 9] was “lowered” and the “morphology of liver cells” value [6, 9] was “restored normal morphology”. For the same compound, the body weight ([6]; at the end of the treatment, vs vehicle (FIG. 34 panel B)) was “significantly decreased”, the “insulin sensitivity (glucose tolerance tests)” value ([6]; vs vehicle (FIG. 35 panel C)) was “increased” and the “fasting blood glucose levels” value ([6]; vs vehicle (FIG. 35 panel D)) was “significantly lower”. For the same compound, the “ClpP activity in liver mitochondria lysates” value [7] was “lower”.

Reference: patent publication US11376242B2, “Methods and compositions for treating obesity and/or diabetes and for identifying candidate treatment agents” (The J. David Gladstone Institutes, a testamentary trust …, priority 2016, dated 2022)
